Assay [1] concerns LPS-induced TNFα in monocytes. Kind of assay: Monocytes assay: LPS-triggered TNFα (ELISA). Particulars: Homo sapiens, Monocyte, LPS 200 ng/mL, supernatant after 4 h. In kind it is cell-based, human. The essentials: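 Human CD14+ monocytes from buffy-coat PBMCs (magnetic bead selection) were seeded at 100 000 cells/well and pretreated with compound for 1 h at 37° C (0.2% DMSO). They were then stimulated with 200 ng/mL LPS for 4 h, and supernatant TNFα was measured by chemiluminescent sandwich ELISA as percent inhibition.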
Background: ELISA stands for enzyme-linked immunosorbent assay.

The next assay deals with IL-10. The experiment in a line: Mouse LPS-induced endotoxic shock, plasma IL-10. The arrangement: key: +: statistically significant induction of IL-10; −: no effect on the level of IL-10. It counts as in vivo. Particulars: p.o., plasma 90 min after LPS challenge. The method, then:
(§1) Injection of lipopolysaccharide (LPS) induces a rapid release of soluble tumour necrosis factor (TNFα) into the periphery. This model was used to assess prospective blockers of TNFα release in vivo.
(§2) Lipopolysaccharide (LPS) from Escherichia Coli serotype O111:B4 was obtained from Sigma Aldrich (Cat #L2630).
(§3) BALB/cAnNCrl mice (female, 18-20 g body weight) were obtained from Charles River (Calco, Italy). Mice were kept on a 12 h light/dark cycle. Temperature was maintained at 22±2° C., food and water were provided ad libitum.
(§4) Mice were dosed once by oral (p.o.) or subcutaneous (sc) route with the tested compound in the appropriate vehicle.
(§5) At the Tmax of compound, 100 μg of LPS (in H2O) was injected intraperitoneally to mice. A control group was included which comprises administering the vehicle without an LPS challenge.
(§6) Mice were sacrificed 90 min after LPS challenge and blood was collected in heparinised tubes. Plasma was obtained by centrifugation for 15 min, 2000×g at +4° C. and frozen at −80° C. before cytokine analysis.
(§7) TNFα and IL-10 were quantified in plasma by AlphaLISA detection kits obtained from PerkinElmer (Massachusetts, USA), Cat4 AL505C and AL502C, respectively.
(§8) Statistics were performed with Prism 5.03 software (GraphPad) using an ANOVA analysis of variance with Dunnett's post-hoc test versus LPS group.
(§9) Active compounds were defined as showing a statistically significant decrease in TNFα with or without a statistically significant induction of IL-10

For the next assay, the system named is TNFα. The experiment in a line: Mouse LPS-induced endotoxic shock, plasma TNFα. It counts as in vivo. The arrangement: key: +: statistically significant inhibition of TNFα; −: no effect on the level of TNFα. As to conditions: p.o., plasma 90 min after LPS challenge. The method, then: as §1, §2, §3, §4, §5, §6, §7, §8, §9

What is called EC50 is the concentration needed to bring the measured effect to its halfway point.

In turn, `COc1cc(-c2cnc3cc(OCCN(C)C)ccn23)cc(OC(F)F)c1C(=O)NC1CC1` [Cpd 6, N-cyclopropyl-2-(difluoromethoxy)-4-[7-[2-(dimethylamino)ethoxy]imidazo[1,2-a]pyridin-3-yl]-6-methoxy-benzamide] gave a half-maximal effective concentration (EC50) in assay [1] (4 h) of 100 to 1000 nM. Also, the figures for the IL-10 entry in the assay with IL-10 (3 mg/kg) and in the assay on IL-10 (10 mg/kg) were “−” and “+”, respectively. The TNFα result with TNFα (3 mg/kg) was “−”; with TNFα (10 mg/kg), “+”.

With `COc1cc(-c2cnc3cc(OCCN(C)C)ccn23)cc2c1C(=O)N(CC(F)(F)F)CC2` [Cpd 18, 6-[7-[2-(dimethylamino)ethoxy]imidazo[1,2-a]pyridin-3-yl]-8-methoxy-2-(2,2,2-trifluoroethyl)-3,4-dihydroisoquinolin-1-one], the IL-10 result in the assay with IL-10 (3 mg/kg) and with IL-10 (10 mg/kg) was “−” in each case. Also, the TNFα entry in the assay with TNFα (3 mg/kg) and with TNFα (10 mg/kg) was “−” throughout.

On to `COc1cc(-c2cnc3cc(OC[C@H]4COCCO4)ccn23)cc2c1C(=O)N(CC(F)(F)F)CC2` [Cpd 86, 6-[7-[[(2R)-1,4-dioxan-2-yl]methoxy]imidazo[1,2-a]pyridin-3-yl]-8-methoxy-2-(2,2,2-trifluoroethyl)-3,4-dihydroisoquinolin-1-one], for which the EC50 in assay [1] (4 h) is 100 to 1000 nM. The IL-10 result in the assay on IL-10 (3 mg/kg) and with IL-10 (10 mg/kg) was “+” throughout. Besides, the TNFα entry in the assay on TNFα (3 mg/kg) and with TNFα (10 mg/kg) was “+” each time.

Regarding `COc1cc(-c2cnc3cc(OCCN4CCOCC4)ccn23)cc2c1C(=O)N(CC(F)(F)F)CC2` [Cpd 88, 8-methoxy-6-[7-(2-morpholinoethoxy)imidazo [1,2-a]pyridin-3-yl]-2-(2,2,2-trifluoroethyl)-3,4-dihydroisoquinolin-1-one], the concentration giving a half-maximal response (EC50) in assay [1] lay in the range of 100 to 1000 nM. The figures for the IL-10 entry in the assay with IL-10 (3 mg/kg), in the assay with IL-10 (10 mg/kg) and in the assay on IL-10 (30 mg/kg) were “−”, “+” and “+”, respectively. In addition, the TNFα result in the assay with TNFα (3 mg/kg), with TNFα (10 mg/kg) and with TNFα (30 mg/kg) was “+” each time.

`COc1cc(-c2cnc3cc(OC[C@@H]4COCCO4)ccn23)cc2c1C(=O)N(CC(F)(F)F)CC2` [compound 225, 6-[7-[[(2S)-1,4-dioxan-2-yl]methoxy]imidazo[1,2-a]pyridin-3-yl]-8-methoxy-2-(2,2,2-trifluoroethyl)-3,4-dihydroisoquinolin-1-one] came in with a half-maximal effective concentration (EC50) in assay [1] (4 h) of 100 to 1000 nM. In addition, the IL-10 result with IL-10 (3 mg/kg) and in the assay on IL-10 (10 mg/kg) was “+” throughout. Further, the TNFα entry with TNFα (3 mg/kg) and in the assay with TNFα (10 mg/kg) was “+” throughout.

As for `COc1cc(-c2cnc3cc(OCC4(F)CN(C)C4)ccn23)cc2c1C(=O)N(CC(F)(F)F)CC2` [compound 252, 6-[7-[(3-fluoro-1-methyl-azetidin-3-yl)methoxy]imidazo[1,2-a]pyridin-3-yl]-8-methoxy-2-(2,2,2-trifluoroethyl)-3,4-dihydro isoquinolin-1-one], the EC50 in assay [1] (4 h) was 100 to 1000 nM.

Take `COc1cc(-c2cnc3cc(OCCN4CCOC[C@H]4C)ccn23)cc2c1C(=O)N(CC(F)(F)F)CC2` [compound 259, 8-methoxy-6-[7-[2-[(3R)-3-methylmorpholin-4-yl]ethoxy]imidazo[1,2-a]pyridin-3-yl]-2-(2,2,2-trifluoroethyl)-3,4-dihydroisoquinolin-1-one]: in assay [1] (4 h), the EC50 fell in the range of 100 to 1000 nM.

`COc1cc(-c2cnc3cc(OCCCN4CC5(COC5)C4)ccn23)cc(OC(F)F)c1C(=O)NC1CC1` [compound 273, N-cyclopropyl-2-(difluoromethoxy)-6-methoxy-4-[7-[3-(2-oxa-6-azaspiro[3.3]heptan-6-yl)propoxy]imidazo[1,2-a]pyridin-3-yl]benzamide] registered a concentration giving a half-maximal response (EC50) in assay [1] (4 h) of 100 to 1000 nM.

In assay [1] (4 h), `COc1cc(-c2cnc3cc(OCCCN4CCC4)ccn23)cc(OC(F)F)c1C(=O)NC1CC1` [compound 274, 4-[7-[3-(azetidin-1-yl)propoxy]imidazo[1,2-a]pyridin-3-yl]-N-cyclopropyl-2-(difluoromethoxy)-6-methoxy-benzamide] gave an EC50 of 100 to 1000 nM.

`COc1cc(-c2cnc3cc(OCCCN4CCCC4)ccn23)cc(OC(F)F)c1C(=O)NC1CC1` [compound 275, N-cyclopropyl-2-(difluoromethoxy)-6-methoxy-4-[7-(3-pyrrolidin-1-ylpropoxy)imidazo[1,2-a]pyridin-3-yl]benzamide]: in assay [1] (4 h), the EC50 lay within 100 to 1000 nM.

The compound `COc1cc(-c2cnc3cc(OCCN4CCN(C(C)C)CC4)ccn23)cc(OC(F)F)c1C(=O)NC1CC1` [compound 276, N-cyclopropyl-2-(difluoromethoxy)-4-[7-[2-(4-isopropylpiperazin-1-yl)ethoxy]imidazo[1,2-a]pyridin-3-yl]-6-methoxy-benzamide] yielded an EC50 in assay [1] (4 h) of 100 to 1000 nM.

In assay [1] (4 h), `COc1cc(-c2cnc3cc(OCCCN4CCNCC4)ccn23)cc(OC(F)F)c1C(=O)NC1CC1` [compound 278, N-cyclopropyl-2-(difluoromethoxy)-6-methoxy-4-[7-(3-piperazin-1-ylpropoxy)imidazo[1,2-a]pyridin-3-yl]benzamide] showed an EC50 of 100 to 1000 nM.

`COc1cc(-c2cnc3cc(OCCOCCN4CCCCC4)ccn23)cc(OC(F)F)c1C(=O)NC1CC1` [compound 305] gave a concentration for a half-maximal effect (EC50) in assay [1] (4 h) of 0.1 to 100 nM.

For the compound `COc1cc(-c2cnc3cc(OCCCN4CCC5(CC4)CN(C)C(=O)O5)ccn23)cc(OC(F)F)c1C(=O)NC1CC1` [compound 325, N-cyclopropyl-2-(difluoromethoxy)-6-methoxy-4-[7-[3-(3-methyl-2-oxo-1-oxa-3,8-diazaspiro[4.5]decan-8-yl)propoxy]imidazo[1,2-a]pyridin-3-yl]benzamide], in assay [1] (4 h), the concentration giving a half-maximal response (EC50) lay within 0.1 to 100 nM.

`COc1cc(-c2cnc3cc(OCCCN4CCCC(O)C4)ccn23)cc(OC(F)F)c1C(=O)NC1CC1` (centres unmarked) [compound 328, N-cyclopropyl-2-(difluoromethoxy)-4-[7-[3-(3-hydroxy-1-piperidyl)propoxy]imidazo [1,2-a]pyridin-3-yl]-6-methoxy-benzamide] returned an EC50 in assay [1] (4 h) of 100 to 1000 nM.

`CCOC(=O)C1(F)CCN(CC(O)COc2ccn3c(-c4cc(OC)c(C(=O)NC5CC5)c(OC(F)F)c4)cnc3c2)CC1` (centres unmarked) [compound 384, ethyl 1-[3-[3-[4-(cyclopropylcarbamoyl)-3-(difluoromethoxy)-5-methoxy-phenyl]imidazo[1,2-a]pyridin-7-yl]oxy-2-hydroxy-propyl]-4-fluoro-piperidine-4-carboxylate] registered an EC50 in assay [1] (4 h) of 0.1 to 100 nM.

For the compound `CCOC(=O)C1(F)CCN(CCOc2ccn3c(-c4cc(OC)c(C(=O)NC5CC5)c(OC(F)F)c4)cnc3c2)CC1` [compound 390, ethyl 1-[2-[3-[4-(cyclopropylcarbamoyl)-3-(difluoromethoxy)-5-methoxy-phenyl]imidazo[1,2-a]pyridin-7-yl]oxyethyl]-4-fluoro-piperidine-4-carboxylate], the concentration for a half-maximal effect (EC50) in assay [1] (4 h) is 0.1 to 100 nM.
